Measured values as given in patent US12459891B2, “1-[1-(4-benzyloxy-3,5-difluoro-benzoyl)-4-fluoro-pyrrolidine-2-carbonyl]-pyrrolidine-2-carbonitrile” (ACCURE THERAPEUTICS, S.L., priority 2020, dated 2025).
Read-outs that look alike come from different tables or passages of the source.

Experiments:
[1] = In vivo brain exposure (plasma and brain AUC); conditions: male, mouse, mice, 5 mg/kg, read-out: % BBB (brain exposure, plasma and brain AUC ratio)
Method: For each compound, twenty-four adult male mice, aged 7-8 weeks on the day of experiment, were used for the study and were allocated randomly between the groups. The experiments were performed on 3 groups of animals as described in the table below:
After compound administration, terminal blood was performed at several time points after intraperitoneal (Comp. ex. 3) or oral administration (Ex. 1).
After transcardiac perfusion with phosphate buffered saline, brains were also collected. All the samples were stored at −80° C. until bioanalysis.
The plasma samples were thawed at room temperature (RT), and the samples were protein precipitated with a 2-fold volume of acetonitrile, containing 20 ng/mL phenacetin as an internal standard. The samples were mixed throughout, followed by centrifugation for 20 min at 2,200×g. The supernatants were diluted 1:1 with 150 mM phosphate buffered saline (pH 7.4) and pipetted onto UPLC 96-well plates to wait for the analysis. […]
Levels of the compounds of Comp. Ex. 3 and example 1 were quantified from mouse plasma and brain. Samples were analyzed using a fit-on-purpose bioanalytical method using a UPLC/QE-Orbitrap-Mass Spectroscopy.
The concentration (ng/mL) of the compounds along time was plotted and the area under the curve (AUC) in plasma and brain tissue was calculated using Graphpad Prism™ 5.0. The plasma to brain ratio was calculated as follows: […]

MK-801-treated mice = assay: Novel object recognition (NOR) task, MK-801-induced cognitive deficit; type: in vivo, male C57/Bl6 mice; conditions: for % discrimination index: mean ± s.e.m.
5-HT1A receptor = target: T1, 5-HT1A receptor (Homo sapiens, UniProt P08908); assay: Selectivity profile, radioligand binding (SafetyScreen44 panel); conditions: 100 μM compound (1% DMSO); read-out: % inhibition of control specific binding
T1 construct: purchased Cerep/Eurofins SafetyScreen44 panel
T1 sequence (P08908 1-422): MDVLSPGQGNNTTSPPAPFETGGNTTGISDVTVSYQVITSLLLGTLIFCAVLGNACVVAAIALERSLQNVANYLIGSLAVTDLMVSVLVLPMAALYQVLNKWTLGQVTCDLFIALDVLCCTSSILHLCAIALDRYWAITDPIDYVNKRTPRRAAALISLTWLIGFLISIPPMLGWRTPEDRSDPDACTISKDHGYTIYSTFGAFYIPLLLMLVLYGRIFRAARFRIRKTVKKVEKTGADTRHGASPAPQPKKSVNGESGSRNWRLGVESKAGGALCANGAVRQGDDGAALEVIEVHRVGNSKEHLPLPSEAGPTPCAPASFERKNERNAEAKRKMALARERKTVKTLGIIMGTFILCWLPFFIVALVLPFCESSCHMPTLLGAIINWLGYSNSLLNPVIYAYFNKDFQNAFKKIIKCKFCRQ
Method: The experiment was performed using the SafetyScreen44® panel from Cerep/Eurofins. Compounds were tested at a concentration 100 μM (in 1% DSMO).
Compound binding was calculated as a percentage inhibition of the binding of a radioactively labeled ligand specific for each target.
The results are expressed as a percent inhibition of control specific binding
[formula] obtained in the presence of tested compounds.
Results showing an inhibition higher than 50% are considered to represent significant effects of the test compounds.

[2] = compound 5 mg/kg intraperitoneal 35 min before test + MK 801 0.2 mg/kg sc
[3] = compound 5 mg/kg oral (po) 35 min before test + MK 801 0.2 mg/kg sc

Row | Kp ([1]; IP) | Kp ([1]; PO) | Structure (SMILES) | % discrimination index (MK-801-treated mice; [2]) | % discrimination index (MK-801-treated mice; [3]) | Efficacy after oral administration (in words) (MK-801-treated mice; oral administration) | inhibition at 100 µM (5-HT1A receptor)
1 | 0.21 |  | COc1cc(C(=O)N2CC(F)(F)C[C@H]2C(=O)N2CCC[C@H]2C#N)cc(OC)c1OCc1ccccc1 [Comp Ex. 3, (S)-1-((2S)-1-(4-(benzyloxy)-3,5-dimethoxybenzoyl)-4,4-difluoropyrrolidine-2-carbonyl)pyrrolidine-2-carbonitrile] | 42.7 ± 3.3 % | 20.1 ± 2.9% | no efficacy | 64.6%
2 |  | 0.253 | N#C[C@@H]1CCCN1C(=O)[C@@H]1C[C@@H](F)CN1C(=O)c1cc(F)c(OCc2ccccc2)c(F)c1 [Example 1, (S)-1-((2S,4R)-1-(4-(benzyloxy)-3,5-difluorobenzoyl)-4-fluoropyrrolidine-2-carbonyl)pyrrolidine-2-carbonitrile] | 30.3 ± 3.9% | 42.1 ± 5.1 % |  | -6.3%
